Results reported in ChEMBL document CHEMBL5715954, “Silencing c-Myc translation as a therapeutic strategy through targeting PI3Kδ and CK1ε in hematological malignancies” (Blood, 2017).

How the values were obtained:
Set-up in all cases: scale not given: the % may be the effect or the level left
[1] = target: T1, Ephrin type-B receptor 1 (Homo sapiens) (UniProt P54762); test: Inhibition of human EPHB1 assessed as enzyme activity at 1 uM using poly[Glu:Tyr] (4:1) as substrate preincubated for 20 mins followed by [gamma-33P]-ATP addition and measured after 120 mins by radiometric Hot-SpotSM Kinase assay relative to control
T1 sequence (whole entry): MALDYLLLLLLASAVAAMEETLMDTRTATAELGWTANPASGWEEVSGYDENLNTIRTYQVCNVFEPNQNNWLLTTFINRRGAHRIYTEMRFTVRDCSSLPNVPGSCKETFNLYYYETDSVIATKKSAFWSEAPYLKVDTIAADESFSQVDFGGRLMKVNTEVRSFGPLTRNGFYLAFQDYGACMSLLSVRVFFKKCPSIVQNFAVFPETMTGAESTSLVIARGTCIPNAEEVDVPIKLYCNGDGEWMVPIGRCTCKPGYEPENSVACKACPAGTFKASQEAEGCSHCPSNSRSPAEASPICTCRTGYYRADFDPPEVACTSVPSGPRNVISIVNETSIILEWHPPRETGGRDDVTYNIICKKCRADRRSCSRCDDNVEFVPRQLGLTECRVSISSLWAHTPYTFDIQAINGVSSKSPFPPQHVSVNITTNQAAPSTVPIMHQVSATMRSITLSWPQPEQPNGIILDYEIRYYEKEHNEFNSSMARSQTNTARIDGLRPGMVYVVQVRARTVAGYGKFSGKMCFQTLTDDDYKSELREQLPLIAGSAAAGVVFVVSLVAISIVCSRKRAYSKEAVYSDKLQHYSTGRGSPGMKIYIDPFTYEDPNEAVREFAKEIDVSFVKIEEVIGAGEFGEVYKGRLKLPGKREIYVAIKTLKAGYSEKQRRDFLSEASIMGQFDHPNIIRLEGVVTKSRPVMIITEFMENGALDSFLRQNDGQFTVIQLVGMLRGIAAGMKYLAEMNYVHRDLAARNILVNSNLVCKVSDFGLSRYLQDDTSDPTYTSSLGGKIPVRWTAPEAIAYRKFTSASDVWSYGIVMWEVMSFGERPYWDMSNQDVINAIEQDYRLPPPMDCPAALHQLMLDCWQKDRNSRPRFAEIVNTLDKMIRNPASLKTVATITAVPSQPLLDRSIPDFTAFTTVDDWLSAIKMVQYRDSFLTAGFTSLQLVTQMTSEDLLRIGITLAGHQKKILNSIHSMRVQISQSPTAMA

[2] = target: Tyrosine-protein kinase Fyn (Homo sapiens) (UniProt P06241); test: Inhibition of human FYN assessed as enzyme activity at 1 uM using poly[Glu:Tyr] (4:1) as substrate preincubated for 20 mins followed by [gamma-33P]-ATP addition and measured after 120 mins by radiometric Hot-SpotSM Kinase assay relative to control
Sequence of Tyrosine-protein kinase Fyn (Homo sapiens) (P06241 2-537 limits assumed): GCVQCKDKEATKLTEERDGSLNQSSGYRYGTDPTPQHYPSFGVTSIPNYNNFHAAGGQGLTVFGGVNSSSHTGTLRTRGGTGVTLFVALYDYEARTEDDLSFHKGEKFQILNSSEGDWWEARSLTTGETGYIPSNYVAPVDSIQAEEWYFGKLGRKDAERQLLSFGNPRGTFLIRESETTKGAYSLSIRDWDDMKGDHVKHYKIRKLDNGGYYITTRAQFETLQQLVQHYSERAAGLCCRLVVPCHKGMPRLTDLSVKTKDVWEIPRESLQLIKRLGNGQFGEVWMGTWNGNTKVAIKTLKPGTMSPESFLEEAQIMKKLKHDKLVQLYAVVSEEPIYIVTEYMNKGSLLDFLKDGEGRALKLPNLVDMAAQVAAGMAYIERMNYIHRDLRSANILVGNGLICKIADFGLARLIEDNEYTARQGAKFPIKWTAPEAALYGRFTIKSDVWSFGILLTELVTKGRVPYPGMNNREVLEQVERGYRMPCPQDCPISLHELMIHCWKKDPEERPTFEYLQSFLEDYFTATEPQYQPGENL

[3] = target: T2, Mitogen-activated protein kinase kinase kinase kinase 2 (Homo sapiens) (UniProt Q12851); test: Inhibition of human GCK assessed as enzyme activity at 1 uM using myelin basic protein as substrate preincubated for 20 mins followed by [gamma-33P]-ATP addition and measured after 120 mins by radiometric Hot-SpotSM Kinase assay relative to control
T2 sequence (whole entry): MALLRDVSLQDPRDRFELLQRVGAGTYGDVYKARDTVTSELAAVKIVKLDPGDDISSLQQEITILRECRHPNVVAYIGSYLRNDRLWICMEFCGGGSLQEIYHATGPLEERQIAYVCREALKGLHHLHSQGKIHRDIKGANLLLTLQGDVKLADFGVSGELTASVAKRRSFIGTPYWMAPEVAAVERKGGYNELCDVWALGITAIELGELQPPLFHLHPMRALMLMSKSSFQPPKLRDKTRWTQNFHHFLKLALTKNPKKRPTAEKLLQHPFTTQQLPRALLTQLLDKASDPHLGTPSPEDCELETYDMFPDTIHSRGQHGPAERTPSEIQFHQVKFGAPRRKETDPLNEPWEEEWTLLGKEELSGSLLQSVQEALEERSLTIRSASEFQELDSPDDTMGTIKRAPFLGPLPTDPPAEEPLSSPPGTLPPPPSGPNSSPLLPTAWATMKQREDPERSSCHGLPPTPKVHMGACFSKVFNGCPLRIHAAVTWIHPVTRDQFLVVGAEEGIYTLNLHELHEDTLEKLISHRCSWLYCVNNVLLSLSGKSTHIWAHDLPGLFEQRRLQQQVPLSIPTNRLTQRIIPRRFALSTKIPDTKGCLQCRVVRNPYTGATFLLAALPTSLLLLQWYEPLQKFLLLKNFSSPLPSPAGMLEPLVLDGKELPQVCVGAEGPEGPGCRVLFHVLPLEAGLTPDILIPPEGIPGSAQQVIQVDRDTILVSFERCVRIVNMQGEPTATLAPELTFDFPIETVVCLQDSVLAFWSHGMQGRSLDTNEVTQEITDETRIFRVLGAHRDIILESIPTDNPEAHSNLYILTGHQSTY

[4] = target: Glycogen synthase kinase-3 beta (Homo sapiens) (UniProt P49841); test: Inhibition of human GSK3b assessed as enzyme activity at 1 uM using YRRAAVPPSPSLSRHSSPHQ(pS)EDEEE as substrate preincubated for 20 mins followed by [gamma-33P]-ATP addition and measured after 120 mins by radiometric Hot-SpotSM Kinase assay relative to control
Sequence of Glycogen synthase kinase-3 beta (Homo sapiens) (P49841 whole entry, looked up, the tested form may be a part): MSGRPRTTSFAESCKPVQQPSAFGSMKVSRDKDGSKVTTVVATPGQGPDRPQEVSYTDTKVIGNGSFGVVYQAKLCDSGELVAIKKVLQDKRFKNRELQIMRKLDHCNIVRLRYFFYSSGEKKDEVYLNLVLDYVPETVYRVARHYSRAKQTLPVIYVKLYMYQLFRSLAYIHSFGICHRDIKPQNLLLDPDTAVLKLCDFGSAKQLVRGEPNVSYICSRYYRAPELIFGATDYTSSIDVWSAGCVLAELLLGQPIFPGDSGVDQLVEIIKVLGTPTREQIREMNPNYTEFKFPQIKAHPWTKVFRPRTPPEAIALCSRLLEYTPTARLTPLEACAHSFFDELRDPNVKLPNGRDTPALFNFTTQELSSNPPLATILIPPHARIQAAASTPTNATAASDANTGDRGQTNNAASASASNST

[5] = target: LIM domain kinase 1 (Homo sapiens) (UniProt P53667); test: Inhibition of human LIMK1 assessed as enzyme activity at 1 uM using cofilin 1 as substrate preincubated for 20 mins followed by [gamma-33P]-ATP addition and measured after 120 mins by radiometric Hot-SpotSM Kinase assay relative to control
Sequence of LIM domain kinase 1 (Homo sapiens) (P53667 whole entry, looked up, the tested form may be a part): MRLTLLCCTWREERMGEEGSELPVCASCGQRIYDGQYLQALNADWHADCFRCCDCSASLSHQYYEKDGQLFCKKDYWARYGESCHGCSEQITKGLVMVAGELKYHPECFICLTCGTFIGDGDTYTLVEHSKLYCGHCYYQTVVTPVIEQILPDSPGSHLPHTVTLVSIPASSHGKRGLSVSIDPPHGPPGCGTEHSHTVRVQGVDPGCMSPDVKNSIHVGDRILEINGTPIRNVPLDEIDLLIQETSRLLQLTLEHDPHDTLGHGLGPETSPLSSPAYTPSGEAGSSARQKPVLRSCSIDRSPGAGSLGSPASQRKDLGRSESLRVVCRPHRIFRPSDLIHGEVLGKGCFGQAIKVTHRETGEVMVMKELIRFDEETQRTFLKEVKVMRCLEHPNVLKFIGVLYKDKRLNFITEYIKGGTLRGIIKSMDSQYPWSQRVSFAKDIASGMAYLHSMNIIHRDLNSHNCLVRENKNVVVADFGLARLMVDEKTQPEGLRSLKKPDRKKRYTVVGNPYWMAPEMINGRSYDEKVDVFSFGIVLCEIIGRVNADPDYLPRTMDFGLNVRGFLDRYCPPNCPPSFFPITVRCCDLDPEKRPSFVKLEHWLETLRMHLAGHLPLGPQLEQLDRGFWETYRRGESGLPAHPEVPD

[6] = target: Serine/threonine-protein kinase 26 (Homo sapiens) (UniProt Q9P289); test: Inhibition of human MST4 assessed as enzyme activity at 1 uM using myelin basic protein as substrate preincubated for 20 mins followed by [gamma-33P]-ATP addition and measured after 120 mins by radiometric Hot-SpotSM Kinase assay relative to control
Sequence of Serine/threonine-protein kinase 26 (Homo sapiens) (Q9P289 2-416 limits assumed): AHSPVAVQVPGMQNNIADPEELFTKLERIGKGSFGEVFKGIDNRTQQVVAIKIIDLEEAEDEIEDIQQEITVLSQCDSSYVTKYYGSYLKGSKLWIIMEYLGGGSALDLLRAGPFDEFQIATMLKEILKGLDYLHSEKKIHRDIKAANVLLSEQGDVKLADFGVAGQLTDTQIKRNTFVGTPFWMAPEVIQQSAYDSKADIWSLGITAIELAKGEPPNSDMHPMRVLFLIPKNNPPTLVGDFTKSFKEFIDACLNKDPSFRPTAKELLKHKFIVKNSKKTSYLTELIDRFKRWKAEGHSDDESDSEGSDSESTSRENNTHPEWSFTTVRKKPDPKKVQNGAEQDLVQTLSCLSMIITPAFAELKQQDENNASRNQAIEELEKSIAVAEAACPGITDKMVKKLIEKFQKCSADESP

[7] = target: Ribosomal protein S6 kinase beta-2 (Homo sapiens) (UniProt Q9UBS0); test: Inhibition of human p70S6Kb assessed as enzyme activity at 1 uM using KKRNRTLTK as substrate preincubated for 20 mins followed by [gamma-33P]-ATP addition and measured after 120 mins by radiometric Hot-SpotSM Kinase assay relative to control
Sequence of Ribosomal protein S6 kinase beta-2 (Homo sapiens) (Q9UBS0 whole entry): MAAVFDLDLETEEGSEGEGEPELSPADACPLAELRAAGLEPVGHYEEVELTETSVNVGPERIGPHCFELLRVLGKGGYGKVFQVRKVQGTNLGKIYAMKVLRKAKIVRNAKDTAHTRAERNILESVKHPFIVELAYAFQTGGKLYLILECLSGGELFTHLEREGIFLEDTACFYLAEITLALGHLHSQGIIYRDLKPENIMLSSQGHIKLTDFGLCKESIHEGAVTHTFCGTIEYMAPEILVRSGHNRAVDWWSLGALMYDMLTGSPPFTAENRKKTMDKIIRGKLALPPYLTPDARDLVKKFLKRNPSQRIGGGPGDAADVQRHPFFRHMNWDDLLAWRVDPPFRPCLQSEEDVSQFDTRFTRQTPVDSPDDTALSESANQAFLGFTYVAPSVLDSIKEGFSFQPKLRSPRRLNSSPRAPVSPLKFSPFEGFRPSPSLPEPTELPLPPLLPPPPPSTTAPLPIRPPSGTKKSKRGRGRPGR

Homo sapiens = species on record: Homo sapiens; test: Inhibition of human PKA assessed as enzyme activity at 1 uM using LCGRTGRRNSI as substrate preincubated for 20 mins followed by [gamma-33P]-ATP addition and measured after 120 mins by radiometric Hot-SpotSM Kinase assay relative to control
[8] = target: Tyrosine-protein kinase Yes (Homo sapiens) (UniProt P07947); test: Inhibition of human YES assessed as enzyme activity at 1 uM using poly[Glu:Tyr] (4:1) as substrate preincubated for 20 mins followed by [gamma-33P]-ATP addition and measured after 120 mins by radiometric Hot-SpotSM Kinase assay relative to control
Sequence of Tyrosine-protein kinase Yes (Homo sapiens) (P07947 2-543 limits assumed): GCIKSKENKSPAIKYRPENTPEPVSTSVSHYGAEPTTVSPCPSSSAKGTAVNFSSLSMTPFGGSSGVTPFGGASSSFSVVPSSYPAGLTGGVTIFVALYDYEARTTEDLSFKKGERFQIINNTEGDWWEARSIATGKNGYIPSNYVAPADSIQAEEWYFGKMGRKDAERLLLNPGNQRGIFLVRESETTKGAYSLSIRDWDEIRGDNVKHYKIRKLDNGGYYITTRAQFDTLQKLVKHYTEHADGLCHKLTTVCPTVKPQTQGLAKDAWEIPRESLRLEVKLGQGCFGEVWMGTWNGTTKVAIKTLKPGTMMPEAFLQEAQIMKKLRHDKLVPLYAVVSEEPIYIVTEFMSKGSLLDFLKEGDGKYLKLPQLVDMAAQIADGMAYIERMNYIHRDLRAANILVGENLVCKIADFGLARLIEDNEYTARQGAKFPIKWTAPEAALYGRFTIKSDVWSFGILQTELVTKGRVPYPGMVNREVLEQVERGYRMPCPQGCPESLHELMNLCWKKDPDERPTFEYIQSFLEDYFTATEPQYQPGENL

SMILES	Activity [1]	Activity [2]	Activity [3]	Activity [4]	Activity [5]	Activity [6]	Activity [7]	Activity (Homo sapiens)	Activity [8]
CC[C@H](Nc1ncnc2[nH]cnc12)c1nc2cccc(F)c2c(=O)n1-c1ccccc1	90.6%	100%	97%	114%	87.3%	91.5%	104%	102%	93.1%
C[C@H](Nc1ncnc2nc[nH]c12)c1cc2cccc(Cl)c2c(=O)n1-c1ccccc1	93.4%	103%	96.7%	113%	90%	83.5%	96.8%	95.5%	94.2%
CC(C)Oc1ccc(-c2nn([C@@H](C)c3oc4ccc(F)cc4c(=O)c3-c3cccc(F)c3)c3ncnc(N)c23)cc1F [UMBRALISIB]	95.5%	99.7%	98.6%	111%	96.7%	88.2%	105%	91.4%	93.5%
